Data set [1] deals with leukocyte recruitment to the bronchoalveolar space in OVA-induced allergic Balb/c mice. The data set is described as follows: BAL fluid total and differential leukocyte counts in OVA-induced allergic asthma. Type of data set: in vivo. The settings on record: 4 weeks, vs Sham. The method, then:
(§1) In Protocol 2, the test compounds Bud (MW: 430.53 g/mol) and Bud-21 P Na2 (MW: 554.48 g/mol) were administered at equimolar doses of 3, 10 and 30 nmol/animal/day, equivalent to 1.3, 4.3 and 12.9 μg/animal/day of Bud, 1.7, 5.5 and […] of Bud-21 P Na2, respectively. The compounds were dissolved in 10% sterile saline+90% DMSO (Sigma Chemical Co., St. Louis, MO) at the correspondent concentrations at which the above-mentioned doses per animal result from the intra-nasal (i.n.) administration of 10 μl/animal (5 μl/nostril) of each of the solutions.
Mice were sensitized with two subcutaneous injections of 0.2 ml of OVA/Al(OH)3, with an interval of 7 days (Sham animals received the Al(OH)3 suspension in PBS with no OVA). Seven days after the second sensitization (i.e., 3rd week), the animals were nebulized twice a week with the 1% OVA solution (Sham and untreated OVA groups were nebulized with PBS) during 20 minutes for the next […]. […]
After Penh evaluation, the mice were anesthetized with inhaled isofluorane (5% v/v in O2) and blood samples were collected from the descending abdominal aorta. […] Total cell counts were determined using a Neubauer chamber, and differential counting was carried out in cytospin (Fanem Mod 2400; Sao Paulo, Brazil) preparations stained with May-Grünwald dye. […]

Data set [2] relates to carrageenan-induced paw edema in CD-1 mice. The data set is described as follows: Carrageenan-induced paw edema. Format: in vivo. The conditions noted are these: first phase; for time after carrageenan at which the significant inhibition level is reached (onset of effect): dose of 0.3 mg/kg, i.p.; for dose relation of anti-inflammatory effect / maximum inhibition of edema: doses 0.1, 0.3, 1 mg/kg i.p.; for maximum inhibition of edema: Bud-21 P—Na2 maximum with either 0.3 or 1 mg/kg. The method, then: In Protocol 1 (paw edema), the test compounds budesonide (Bud) and budesonide 21-phosphate sodium salt (Bud 21-P Na2) have been tested. Both compounds were administered in a volume of 100 μl intraperitoneally 1 hour before the induction of the inflammatory reaction. Doses of 0.1, 0.3 e 1 mg/kg were tested.
Carrageenan edema in the paw of the CD-1 mice involves the sub-plantar administration of 50 μl of 1% carrageenan and the measurement of the increase in the volume of the paw by using a hydroplethysmometer. This experimental model has a biphasic development (Posadas et al., Br J Pharmacol 2004 May; 142(2):331-338). The first phase, which is acute, is sustained by an increase in permeability accompanied by infiltration of neutrophils, which develops and resolves between 4 and 5 hours. The second phase occurs after 24 hours and is characterized by macrophage infiltration and has the characteristics of sub chronic inflammation, which reaches its maximum after 72 hours and resolves after 5 days. Bud and Bud 21-P Na2 have been tested. Both compounds were administered in a volume of 100 μl intraperitoneally 1 hour before the induction of the inflammatory reaction. Doses of 0.1, 0.3 e 1 mg/kg were tested.

Data set [3] concerns methacholine-induced bronchoconstriction in OVA-induced allergic Balb/c mice. The data set is described as follows: Lung hyperreactivity / Penh function in OVA-induced allergic asthma. The conditions noted are these: 3, 10 and 30 nmol/animal/day i.n., 4 weeks; vs untreated OVA group. Format: in vivo. The method, then: as §1
Chicken egg-white ovalbumin (OVA; grade V, cat. A5503, Sigma Chemical Co., St. Louis, MO) was dissolved in sterile phosphate buffered saline (PBS) solution (250 μg/ml) and Al(OH)3 was added (at 13 mg/ml). This mix was used to induce the allergic sensitization of the animals by subcutaneous injection. OVA was dissolved at 1% in sterile PBS solution and this solution was nebulized (as the immunological challenges).
Mice were sensitized with two subcutaneous injections of 0.2 ml of OVA/Al(OH)3, with an interval of 7 days (Sham animals received the Al(OH)3 suspension in PBS with no OVA). Seven days after the second sensitization (i.e., 3rd week), the animals were nebulized twice a week with the 1% OVA solution (Sham and untreated OVA groups were nebulized with PBS) during 20 minutes for the next […].
Three hours after the challenges (OVA nebulization) and daily during the next 4 weeks (following the first OVA challenge), mice were intra-nasally treated (10 μl/animal as 5 μl/nostril) with the respective compounds/vehicle, and the last dose was administered 30 min before the Penh measurement at the end of the 6th week.
Airway responsiveness in conscious, spontaneously breathing animals was measured at the end of the 6th week (i.e., after 4-week OVA challenges+treatments), 24 h after the last OVA/PBS challenge via whole body plethysmography (Buxco Europe Ltd, Winchester, UK), as previously described (Santos et al., 2014). Experiments were carried out in a quiet room by an investigator who was unaware of the nature of treatments.
Aerosolized saline (50 μl/mouse during 60 s) and then the muscarinic agonist methacholine (MCh) at increasing concentrations (3.12, 6.25, 12.5 and 25.0 mg/ml in PBS) was nebulized through an inlet of the main chamber for 3 min each to induce bronchoconstriction and readings were taken and averaged for 6 min following each nebulization. After 20 min, the baseline values usually returned at the end of this period. Enhanced pause (Penh) was measured as an indicator of bronchoconstriction and consequent increase of airway resistance as: Penh=[(expiration time/relaxation time)−1]/(maximum expiration flow/maximum inspiration flow).

The conditions of data set [4]: at physiological pH in the intestinal region; cited from earlier work.
In data set [5] the test system is BK- and C48/80-induced plasma extravasation in dorsal skin of C57Bl/6 mice. The data set is described as follows: Skin edema (plasma extravasation, Evans blue method) induced by BK or C48/80. Type of data set: in vivo. The conditions noted are these: for BK-induced plasma extravasation / reduction of C48/80-induced plasma extravasation: 2.32 μmol/kg i.p. (1.0 mg/kg Bud, 1.3 mg/kg Bud-21 P—Na2) 60 min before i.d. injection, 30 min. The protocol:
In Protocol 3, Bud (at doses of 1.0 and 0.30 mg/kg) and Bud 21-P Na2 (at doses of 1.3 and 0.39 mg/kg) were administered on a molar base, these doses were equivalent to […] μmol/kg of each compound, respectively. The vehicle for dissolution of the compounds was sterile saline solution (0.9% NaCl) containing 12.5% DMSO (Sigma Chemical Co., St. Louis, MO). The compound solutions were prepared at concentrations such that the administered dose per kg of body weight results from the intraperitoneal (i.p.) administration of 10 ml/kg of each of the solutions.
Skin edema was assessed in mice according to the method previously described by Costa et al. (2006), Vasc. Pharmacol; 45: 209-214 and Yshii et al (2009), Toxicon; 53: 42-52. The mice were anesthetized with urethane (25% w/v, 10 ml/kg, i.p.), had their dorsal skin shaved, and thereafter i.p. treated with the vehicle/test compounds. Fifty-five minutes later, a volume of 100 μL of Evans blue dye solution (0.25% in sterile saline) was intravenously (i.v.) injected via the tail vein. Five minutes later, the BK and C48/80 were intradermally (i.d.) injected into the dorsal skin at a fixed volume of 50 μl using a randomized scheme. The same volume of Tyrode solution 50 μl was injected as a control. Thirty minutes later, a 1 ml blood sample was obtained via cardiac puncture and the mice were killed by urethane overdose followed by cervical dislocation. The blood samples were centrifuged at 6,000 g for 4 min to obtain the plasma. The dorsal skin was removed, and the injected sites were punched out using an 8 mm diameter cork borer. A non-injected skin site distant from the injection sites was also punched and taken as a blank. The dye was extracted from each piece of skin and plasma (100 μl) samples using formamide, and the absorbance of the resulting solutions was measured at 620 nm. The plasma extravasation due to each agent (expressed in μl/site) was calculated as the ratio between the absorbance of each respective skin piece, corrected by the blank value and plasma sample solutions, properly adjusted by the dilution factors [Vasc. Pharmacol (2006); 45: 209-214]. To homogenate data due to the variability of different group of animals (inter-group variations), edema data are expressed as the fold-change response relative to the mean Tyrode (control) response of each experiment.

For data set [6] the following is noted: cited from earlier work.
Where [7] appears, read: 0.70 μmol/kg i.p. (0.30 mg/kg Bud, 0.39 mg/kg Bud-21 P—Na2).

As usually defined, the logP is the decadic logarithm of the partition coefficient of the neutral form, usually between octanol and water.

In brackets after ≈: the same amount, converted by molar mass.

On to `CCCC1OC2CC3C4CCC5=CC(=O)C=CC5(C)C4C(O)CC3(C)C2(C(=O)CO)O1` (stereo not drawn) [Bud, 11β,21-dihydroxy-16α,17α-(butylidenebis(oxy))pregna-1,4-diene-3,20-dione], for which the “total BAL leukocytes compared with Sham” value in data set [1] (3 nmol/animal/day i.n.) is listed as “still significantly higher than that observed in the Sham mice”. The “BAL macrophages compared with Sham” value in data set [1] (either 3 or 10 nmol/animal/day i.n.) is recorded as “still significantly higher than those observed in the Sham group”. In data set [2], the “time after carrageenan at which the significant inhibition level is reached (onset of effect)” value came to 6 h, the “dose relation of anti-inflammatory effect” value is “not dose-related” and the “maximum inhibition of edema” value was “about 50%”. In data set [3], the “Penh AUC (area under Penh vs methacholine curve)” value was “significant reduction of this response just at the highest dose” and the “Penh Emax (maximal response)” value is “significant reduction of this response just at the highest dose”. Further, the solubility in water in data set [4] was 28 µg/mL (≈ 65 µM). In addition, in data set [5] (setting [7]), the BK-induced edema entry was “ineffective” and the C48/80-induced edema result is reported as “ineffective”. In addition, in data set [5], the BK-induced plasma extravasation result is “abolished” and the “reduction of C48/80-induced plasma extravasation” value was “approximately 50%”. For the same compound, in data set [6], the logP is reported as 3.2.
Turning to “Budesonide 21-phosphate sodium salt [Bud-21 P—Na2]”, in data set [2] (0.1 mg/kg i.p. 60 min before carrageenan), the “inhibition of edema formation” value is recorded as 50%. Besides, in data set [2], the “time after carrageenan at which the significant inhibition level is reached (onset of effect)” value was 2 h, the “dose relation of anti-inflammatory effect” value is given as “dose-related anti-inflammatory effect” and the “maximum inhibition of edema” value is recorded as 70%. Besides, in data set [3], the “Penh AUC (area under Penh vs methacholine curve)” value was “significantly reduced” and the “Penh Emax (maximal response)” value is “significantly reduced”. In addition, in data set [5] (setting [7]), the C48/80-induced edema result is given as “significantly inhibited”. Further, in data set [5], the BK-induced plasma extravasation entry is recorded as “abolished” and the “reduction of C48/80-induced plasma extravasation” value is listed as “approximately 50%”.

These data come from patent publication US20250090551A1, “BUDESONIDE 21-PHOSPHATE SODIUM SALT FOR USE AS ANTI-INFLAMMATORY OR ANTIASTHMATIC AGENT” (GENETIC S.P.A., priority 2021, published 2025).
